Test: Tmax in 12 hrs fasted Sprague-Dawley rat at 15 mg/kg, po measured upto 24 hrs by LC-MS analysis
Format: ADME, organism-based
Details: in vivo

## COc1cc(CNc2ccc3c(c2)ncn3-c2ccccc2)ccc1OCCO
  Tmax: 39 min
